The values that follow come from publication PMC11861159, “Design, synthesis, and in vitro, in vivo, and in silico evaluation of novel substituted 1,3,4-thiadiazole derivatives as anticonvulsant agents” (Frontiers in Chemistry, 2025).

Broadly, the IC50 is the point on the concentration scale where inhibition reaches its midpoint.

One data set concerns MES-induced seizures. The data set can be described thus: Maximal electroshock-induced seizure (MES) test.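 On % protection MES 0.5 h: percent reduction of the test group versus the control group.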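 On % protection MES 4 h: percent reduction of the test group versus the control group.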 It is filed as in vivo, male Swiss albino mice. The settings on record: for Minimum active dose (mg/kg) MES 0.5 h / Minimum active dose (mg/kg) MES 4 h: oral, lowest dose active in half or more of the mice, n = 6. A general note: The maximal electroshock test induces tonic seizures with an electrical stimulus.

Data set [1] addresses T1, human carbonic anhydrase IX (Homo sapiens, UniProt Q16790).
T1 construct: purchased Sino Biological Inc, Beijing, China
The experiment in a line: Human carbonic anhydrase IX colorimetric (p-nitrophenyl acetate) inhibition assay. It is filed as biochemical. To be noted: mean ± SEM, three independent experiments in triplicate; read-out: CA IX (IC50). As for the experimental part:
(§1) In brief, the reaction mixture contained 60 μL of 50 mM Tris-sulfate buffer (pH 7.6, containing 0.1 mM ZnCl2),10 μL (0.5 mM) of the test compound in 1% DMSO, and 10 μL of human carbonic anhydrase II and IX (Sino Biological Inc, Beijing, China). All the ingredients were mixed well and pre-incubated at 25°C for 10 min. Substrate p-nitrophenyl acetate was prepared as a 6 mM stock solution using 5% of acetonitrile in buffer and was used fresh. […] The total assay volume was adjusted to 100 μL and further incubated at 37°C for 30 min. Furthermore, all the ingredients were mixed properly, and absorbance was measured. […] The results reported are the mean of triplicate experiments (±SEM) and expressed IC50 values, which were calculated.

A further data set concerns PTZ-induced seizures. The data set can be described thus: Subcutaneous pentylenetetrazole (sc-PTZ) test.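 On % protection Sc-PTZ 0.5 h: percent reduction of the test group versus the control group.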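 On % protection Sc-PTZ 4 h: percent reduction of the test group versus the control group.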 To be noted: for Minimum active dose (mg/kg) Sc-PTZ 0.5 h / Minimum active dose (mg/kg) Sc-PTZ 4 h: oral, lowest dose active in half or more of the mice, n = 6. The data set is classed as in vivo, male Swiss albino mice.
Another data set has as its system mice. The experiment in a line: Rotarod neurotoxicity screening. The data set is classed as in vivo, male Swiss albino mice. To be noted: for Neurotoxicity dose (mg/kg) 0.5 h / Neurotoxicity dose (mg/kg) 4 h: rotarod, oral doses 30, 100, 300 mg/kg. How it is done:
The rotarod test, as described in the literature, was used to evaluate neurotoxicity (NT) in mice. In brief, six mice (one group) were trained to balance on a spinning rod (3 cm diameter and 6 rpm speed) to familiarize with the rotarod apparatus (Orchid Scientific, India). Each mouse underwent three trials to remain on the rotating rod for over 1 minute, with the experiment’s cutoff time (180 s) remaining constant. Different pre-oral (p.o.) doses of test and standard substances were administered to the trained animals.
On the technique in general: Falling from the rotarod earlier than controls is read as motor impairment.

Data set [2] has as its target T2, human carbonic anhydrase II (Homo sapiens, UniProt P00918).
T2 construct: purchased Sino Biological Inc, Beijing, China
The experiment in a line: Human carbonic anhydrase II colorimetric (p-nitrophenyl acetate) inhibition assay. It is filed as biochemical. The settings on record: mean ± SEM, three independent experiments in triplicate; read-out: CA II (IC50). How it is done: as §1

For the next data set, the system named is induced seizures. The experiment in a line: Anticonvulsant screening (MES and sc-PTZ), outcome recovery/death.
For another data set, the system named is GABA level. The experiment in a line: Estimation of brain GABA level. It is filed as in vivo, mice. The settings on record: 30 mg/kg p.o., 2 h after administration, compared to pentylenetetrazole-treated group. As for the experimental part:
Brain tissue homogenates were prepared by isolating the brain (tissue) from the mice. […] Mice’s brains (tissue) were quickly removed and weighed, and the whole brain samples were washed twice with ice-cold saline solution before being deposited in glass vials, labeled, and stored in a deep freeze (−30°C) until further use. Brain tissue samples were homogenized with a glass handheld homogenizer (PTFE coated). Tissue homogenates (10% w/v) were prepared in cold 0.1 M phosphate buffer (pH adjusted to 7.4) using a homogenizer. To test biological parameters, the supernatant from homogenates was centrifuged at 12,000 rpm for 20 min at 4°C.
The supernatant was put on silica gel 60 F254 aluminum sheets (10 cm × 10 cm) as the stationary phase, with the mobile phase consisting of water-saturated phenol. Prior to chromatography, TLC plates were prewashed with methanol and activated in an oven at 50°C for 5 min. The 0.1 mL supernatant solutions were applied in the form of bands on TLC plates. At room temperature, ascending development was carried out in a glass chamber saturated with the mobile phase for 30 min until a length of 80 mm was reached. The TLC plates that had been created were air-dried and treated with ninhydrin. […] The method’s specificity was determined by obtaining standard GABA samples and comparing their Rf values. […]

Data set [3] deals with total antioxidant capacity (TAC). The data set can be described thus: Total antioxidant capacity (FRAP) in brain tissue of PTZ-treated mice. It is filed as in vivo. The settings on record: compared to pentylenetetrazole-treated group, n = 6. As for the experimental part:
(§2) Brain tissue homogenates were prepared by isolating the brain (tissue) from the mice. Animals were euthanized under anesthesia by ketamine (80 mg/kg) and xylazine (5 mg/kg) after 8 h of inducing test and standard compounds. Mice’s brains (tissue) were quickly removed and weighed, and the whole brain samples were washed twice with ice-cold saline solution before being deposited in glass vials, labeled, and stored in a deep freeze (−30°C) until further use. Brain tissue samples were homogenized with a glass handheld homogenizer (PTFE coated). Tissue homogenates (10% w/v) were prepared in cold 0.1 M phosphate buffer (pH adjusted to 7.4) using a homogenizer. To test biological parameters, the supernatant from homogenates was centrifuged at 12,000 rpm for 20 min at 4°C.
Total antioxidant capacity (TAC) was measured by mixing 200 μL of tissue samples with 3 mL of ferric-reducing antioxidant power (FRAP) reagent in a vortex. After incubating samples and blank tubes in a water bath for 30 min at 37°C, the absorbance of the samples was measured at 593 nm. For the standard curve, a stock solution of FeSO4.7H2O in distilled water was produced. Stock solution concentrations were 200, 400, 800, 1200, and 1600 μM. The curve results were given as mM of ferrous sulfate equivalent Fe2+/L ([Sun et al., 1988]).

For a further data set, the system named is glutathione (GSH). The data set can be described thus: Reduced glutathione level in brain of PTZ-treated mice. It is filed as in vivo. The settings on record: compared to pentylenetetrazole-treated group, n = 6. How it is done: as §2
The quantity of glutathione (GSH) in the brain was determined using the Sedlak and Lindsay method ([Pant et al., 2023]). In brief, brain tissue was deproteinized with an equal amount of 10% TCA and left at 4°C for 2 h. The contents were centrifuged for 15 min at 1200 rpm. The supernatant was mixed with 2 mL of 0.4 M Tris buffer (pH 8.9) containing 0.02 M EDTA (pH 8.9), and then 0.01 M DTNB was added. Finally, the mixture was diluted with 0.5 mL of distilled water to make a total volume of 3 mL, and absorbance was measured using a spectrophotometer at 412 nm, with results expressed as mg GSH/gm tissue.

A further data set has as its system nitric oxide (NO). The experiment in a line: Nitrite/NO level (Greiss reagent) in brain homogenate of PTZ-treated mice. It is filed as in vivo. The settings on record: brain supernatant, compared to pentylenetetrazole-treated group, n = 6. How it is done:
as §2
Greiss reagent, a solution of 0.5% sulfonamide, 2.5% phosphoric acid, and 0.05% naphthyl ethylenediamine, was used to measure nitric oxide (NO) in TSH. Greiss reagent and TSH absorbance were measured at 540 nm, and the sodium nitrite standard curve was used to calculate the quantity of nitrite ([Wills, 1996]; [Green et al., 1982]).

The structures appear in SMILES notation.

`COc1ccc(C(=O)Nc2nncs2)cc1OCCN1CCCC1` [Compound 7c, 4-Methoxy-3-(2-(pyrrolidin-1-yl)ethoxy)-N-(1,3,4-thiadiazol-2-yl)benzamide]: in the data set with MES-induced seizures (100 mg/kg oral), the “% protection MES 0.5 h” value worked out at 24.61% and the “% protection MES 4 h” value amounted to 32.30%. Moreover, in the data set on MES-induced seizures (300 mg/kg oral), the “% protection MES 0.5 h” value was found to be 35.38% and the “% protection MES 4 h” value is 49.23%. In the data set on MES-induced seizures, the “Minimum active dose (mg/kg) MES 0.5 h” value came out at 100 mg/kg and the “Minimum active dose (mg/kg) MES 4 h” value is 100 mg/kg. The IC50 in data set [1] worked out at 640 ± 40 nM. For the same compound, in the data set on PTZ-induced seizures (300 mg/kg oral), the “% protection Sc-PTZ 0.5 h” value is given as 35.38% and the “% protection Sc-PTZ 4 h” value is listed as 36.75%. In the data set on PTZ-induced seizures, the “Minimum active dose (mg/kg) Sc-PTZ 0.5 h” value is on record as 300 mg/kg and the “Minimum active dose (mg/kg) Sc-PTZ 4 h” value worked out at 300 mg/kg. Moreover, in the data set with mice, the “Neurotoxicity dose (mg/kg) 0.5 h” value is “- (The indication - (dash) denotes a lack of action at the maximum dose supplied (300 mg/kg))” and the “Neurotoxicity dose (mg/kg) 4 h” value is recorded as “- (The indication - (dash) denotes a lack of action at the maximum dose supplied (300 mg/kg))”. In addition, the IC50 in data set [2] amounted to 690 ± 20 nM. The Recovery/death entry in the data set with induced seizures (30 mg/kg oral) is recorded as “Recovery”. Moreover, in the data set with induced seizures (100 mg/kg oral), the Recovery/death entry is “Recovery”. Besides, the Recovery/death entry with induced seizures (300 mg/kg oral) is on record as “Recovery”.

On to `CCN(CC)CCOc1cc(C(=O)Nc2nncs2)ccc1OC` [Compound 7d, 4-Methoxy-3-(2-(diethylamino)ethoxy)-N-(1,3,4-thiadiazol-2-yl)benzamide], for which the “% protection MES 0.5 h” value with MES-induced seizures (30 mg/kg oral) was 30.76%; with MES-induced seizures (100 mg/kg oral), 41.53%; with MES-induced seizures (300 mg/kg oral), 61.53%. The results for the “% protection MES 4 h” value in the data set with MES-induced seizures (30 mg/kg oral), in the data set with MES-induced seizures (100 mg/kg oral) and with MES-induced seizures (300 mg/kg oral) were 40%, 63.07% and 76.92%, respectively. Moreover, the “Minimum active dose (mg/kg) MES 0.5 h” value in the data set with MES-induced seizures was determined as 30 mg/kg. Further, in the data set on MES-induced seizures, the “Minimum active dose (mg/kg) MES 4 h” value was found to be 30 mg/kg. For the same compound, in the data set with GABA level, the “GABA level in the brain” value is recorded as “significant increase in GABA levels”. Further, the “TAC level (FRAP)” value in data set [3] is “significant increase in TAC levels”. For the same compound, the IC50 was determined as 280 ± 30 nM in data set [1] and 480 ± 40 nM in data set [2]. The “% protection Sc-PTZ 0.5 h” value with PTZ-induced seizures (30 mg/kg oral) was 42.43%; with PTZ-induced seizures (100 mg/kg oral) it was 53.27%; in the data set on PTZ-induced seizures (300 mg/kg oral), 61.46%. The “% protection Sc-PTZ 4 h” value in the data set with PTZ-induced seizures (100 mg/kg oral) was 62.85%; in the data set on PTZ-induced seizures (300 mg/kg oral), 75.18%. Besides, in the data set on PTZ-induced seizures, the “Minimum active dose (mg/kg) Sc-PTZ 0.5 h” value is reported as 30 mg/kg. For the same compound, the “Minimum active dose (mg/kg) Sc-PTZ 4 h” value in the data set on PTZ-induced seizures was 100 mg/kg. In addition, the GSH level result in the data set on glutathione (GSH) is given as “significant increase in GSH levels”. Besides, the “Neurotoxicity (rotarod test), result in words” value in the data set with mice (at the highest dose (300 mg/kg)) was “without any sign of neurotoxicity”. Moreover, the “Neurotoxicity dose (mg/kg) 0.5 h” value in the data set on mice is listed as “- (The indication - (dash) denotes a lack of action at the maximum dose supplied (300 mg/kg))”. The “Neurotoxicity dose (mg/kg) 4 h” value with mice is “- (The indication - (dash) denotes a lack of action at the maximum dose supplied (300 mg/kg))”. The “NO (nitrite) level” value in the data set with nitric oxide (NO) was “significantly reduced NO levels”. Also, the Recovery/death result in the data set with induced seizures (30 mg/kg oral), with induced seizures (100 mg/kg oral) and with induced seizures (300 mg/kg oral) was “Recovery” in each case.

For `COc1ccc(C(=O)Nc2nncs2)cc1OCCN(C)C` [Compound 7e, 4-Methoxy-3-(2-(dimethylamino)ethoxy)-N-(1,3,4-thiadiazol-2-yl)benzamide], the “% protection MES 0.5 h” value in the data set on MES-induced seizures (30 mg/kg oral) was 36.92%; in the data set on MES-induced seizures (100 mg/kg oral), 43.07%; in the data set with MES-induced seizures (300 mg/kg oral), 60%. Moreover, the “% protection MES 4 h” value in the data set on MES-induced seizures (100 mg/kg oral) is recorded as 58.46%; with MES-induced seizures (300 mg/kg oral), 72.30%. Besides, the “Minimum active dose (mg/kg) MES 0.5 h” value with MES-induced seizures came out at 30 mg/kg. Moreover, the “Minimum active dose (mg/kg) MES 4 h” value in the data set with MES-induced seizures was found to be 100 mg/kg. The concentration for half-maximal inhibition (IC50) stood at 610 ± 20 nM in data set [1] and 530 ± 30 nM in data set [2]. The “% protection Sc-PTZ 0.5 h” value with PTZ-induced seizures (30 mg/kg oral) came out at 34.26%; in the data set on PTZ-induced seizures (100 mg/kg oral) it was 43.07%; with PTZ-induced seizures (300 mg/kg oral), 60%. Besides, the “% protection Sc-PTZ 4 h” value in the data set with PTZ-induced seizures (100 mg/kg oral) was found to be 61.04%; in the data set on PTZ-induced seizures (300 mg/kg oral), 67.81%. In the data set on PTZ-induced seizures, the “Minimum active dose (mg/kg) Sc-PTZ 0.5 h” value is 30 mg/kg. The “Minimum active dose (mg/kg) Sc-PTZ 4 h” value in the data set with PTZ-induced seizures was 100 mg/kg. Besides, in the data set on mice, the “Neurotoxicity dose (mg/kg) 0.5 h” value is “- (The indication - (dash) denotes a lack of action at the maximum dose supplied (300 mg/kg))”. Moreover, in the data set on mice, the “Neurotoxicity dose (mg/kg) 4 h” value is on record as “- (The indication - (dash) denotes a lack of action at the maximum dose supplied (300 mg/kg))”. Further, the Recovery/death result in the data set with induced seizures (30 mg/kg oral), with induced seizures (100 mg/kg oral) and with induced seizures (300 mg/kg oral) was “Recovery” each time.
